Laboratory results from patent US8846708B2, “Salt of a pyrimidin derivative” (Laboratorios Senosiain S.A. de C.V., priority 2010, dated 2014).

Experiments:
[1] = cited from earlier work
proteins = details: cited from earlier work
[2] = in vivo; cited from earlier work
[3] = Description / flowability of the salt powder; assay type: physicochemical
physchem = assay: physchem
Protocol: Additionally, a comparative solubility test was performed between rosuvastatin calcium and rosuvastatin lysine.

CC(C)c1nc(N(C)S(C)(=O)=O)nc(-c2ccc(F)cc2)c1/C=C/[C@@H](O)C[C@@H](O)CC(=O)O [Rosuvastatin, (3R,5S,6E)-7-[4-(4-fluorophenyl)-2-(N-methylmethanesulfonamide)-6-(propan-2-yl)pyrimidin-5-yl]-3,5-dihydroxihept-6-enoic acid]
Solubility in water [1]: slightly soluble in water

CC(C)c1nc(N(C)S(C)(=O)=O)nc(-c2ccc(F)cc2)c1/C=C/[C@@H](O)C[C@@H](O)CC(=O)O [rosuvastatin calcium, (3R,5S,6E)-7-[4-(4-fluorophenyl)-2-(N-methylmethanesulfonamide)-6-(propan-2-yl)pyrimidin-5-yl]-3,5-dihydroxihept-6-enoic acid]
Binding to proteins (proteins): 88%
Absolute bioavailability [2]: approximately 20%
Excretion in feces [2]: 90%
Excretion in urine [2]: 10%
Description: flowability [3]: without flowability.
Solubility, HCl 10% (physchem): It sticks to the bottom of the container.
Solubility, Methanol (physchem): Taffy
solubility (physchem; aqueous buffer): 600 µg/mL
solubility (physchem; organic solvent or mixture): 10000 µg/mL
solubility (physchem; water): 5300 µg/mL
